These results are taken from article PMC9032790.

Converted amounts (≈) assume the structure as drawn. Marks after values point to notes of the source that are not given here.

In one experiment the test system is 1F7-McAb. Nature of the experiment: heterologous ic-ELISA with 1F7-McAb. The conditions noted are these: for cross-reactivity rate: IC50 of clothianidin / IC50 of analogue × 100%.
For experiment [1], the system named is 1F7-RAb. Nature of the experiment: IMI-H-OVA-based heterologous ic-ELISA with 1F7-RAb. Format: binding, mouse. The settings on record: for cross-reactivity rate: ic-ELISA, IC50 of clothianidin / IC50 of analogue × 100%. For orientation: An ELISA detects its analyte on a solid surface through an enzyme-linked reagent.
The test system of experiment [2] is McAb [23] (anti-clothianidin antibody). Also on record: method as in PMID 23202236. The settings on record: ic-ELISA, cited from earlier work; for cross-reactivity rate: IC50 of clothianidin / IC50 of analogue × 100%.
Experiment [3] concerns 5C3-RAb. Nature of the experiment: THC-H-OVA-based heterologous ic-ELISA with 5C3-RAb. Format: binding, mouse. The conditions noted are these: for cross-reactivity rate: ic-ELISA, IC50 of clothianidin / IC50 of analogue × 100%.
Experiment [4] deals with McAb [35] (anti-clothianidin antibody). Also noted: method as in PMID 25173856. The conditions noted are these: ic-ELISA, cited from earlier work; for cross-reactivity rate: IC50 of clothianidin / IC50 of analogue × 100%.
Another experiment deals with 5C3-McAb. Nature of the experiment: heterologous ic-ELISA with 5C3-McAb. The settings on record: for cross-reactivity rate: IC50 of clothianidin / IC50 of analogue × 100%.
Experiment [5] has as its system PcAb [22] (anti-clothianidin antibody). Also noted: method as in PMID 23527939. The settings on record: ic-ELISA, cited from earlier work; for cross-reactivity rate: IC50 of clothianidin / IC50 of analogue × 100%.
Experiment [6] deals with 5C3-RAb. Nature of the experiment: non-competitive SPR with immobilized 5C3-RAb. The format is binding, mouse.
The test system of experiment [7] is 1F7-RAb. As to the kind of experiment: non-competitive SPR with immobilized 1F7-RAb. Format: binding, mouse.
For experiment [8], the system named is 1F7-RAb. As to the kind of experiment: 1F7-RAb-based GICA, selectivity and sensitivity in standard solution. The conditions noted are these: analyte at 1000 μg/L, judged with the naked eye. The format is binding, mouse.
Experiment [9] has as its system six potential antibodies from hybridoma culture supernatants. As to the kind of experiment: homologous ic-ELISA hybridoma screening (CLO-H-OVA). The settings on record: free clothianidin 50 μg/L; CLO-H-OVA 5 μg/mL.
Setting [10] is: 8 neonicotinoids at the same concentration of 50 nM.
The mark [11] stands for this setting: SPR, 1:1 binding kinetic model, read-out: KD (dissociation equilibrium constant).

`N#C/N=C1\SCCN1Cc1ccc(Cl)nc1` [C00005]: the cross-reactivity rate in the experiment on 1F7-McAb is under 0.1%; with 1F7-RAb [1] it was under 0.1%; in experiment [2], under 0.1%; in the experiment with 5C3-RAb [3], under 0.1%; in experiment [4], under 0.03%; in the experiment with 5C3-McAb, under 0.1%. For the same compound, in experiment [5], the cross-reactivity rate is on record as under 0.05%.
Regarding `CCN(Cc1ccc(Cl)nc1)/C(=C\[N+](=O)[O-])NC` [C00007], the cross-reactivity rate with 1F7-McAb is recorded as under 0.1%; with 1F7-RAb [1] it was under 0.1%; in experiment [2], under 0.1%; with 5C3-RAb [3], under 0.1%; in experiment [4] it was under 0.03%; with 5C3-McAb, under 0.1%. In addition, the cross-reactivity rate in [5] was under 0.05%.
As for `CN/C(=N\[N+](=O)[O-])NCc1cnc(Cl)s1` [clothianidin], the IC50 value is 5.38 ng/mL (≈ 0.0215 µM) with 1F7-McAb; 4.62 ng/mL (≈ 0.0185 µM) with 1F7-RAb [1] (heterologous ic-ELISA, 1.25 μg/mL of IMI-H-OVA); 4.4 ng/mL (≈ 0.0176 µM) in experiment [2]; 5.22 ng/mL (≈ 0.0209 µM) in the experiment on 5C3-RAb [3] (heterologous ic-ELISA, 5 μg/mL of THC-H-OVA, listed as C00001); 25.6 ng/mL (≈ 0.103 µM) in experiment [4]; 13.16 ng/mL (≈ 0.0527 µM) in the experiment with 5C3-McAb. Moreover, the IC50 value in [5] is 46 ng/mL (≈ 0.184 µM). Besides, the cross-reactivity rate (in the experiment with 1F7-McAb; with 1F7-RAb [1]; in experiment [2]; in the experiment on 5C3-RAb [3]; in [4]; with 5C3-McAb) was 100% throughout. For the same compound, in experiment [5], the cross-reactivity rate is on record as 100%. For the same compound, the “SPR binding selectivity signal” value with 5C3-RAb [6] (setting [10]) and in the experiment with 1F7-RAb [7] (setting [10]) was “high signal” in each case. Moreover, the Kd is 7.96 nM at 5C3-RAb [6] (setting [11]) and 3.24 nM on 1F7-RAb [7] (setting [11]). In addition, the “GICA cross-reaction test, effect on T line” value in the experiment with 1F7-RAb [8] is recorded as “complete disappearance of the T line”. The “inhibition of binding of CLO-H-OVA to antibodies” value in experiment [9] was “less than 11%”.
For the compound `O=[N+]([O-])/N=C1/NCCN1Cc1cnc(Cl)s1` [C00008], the cross-reactivity rate with 1F7-McAb is under 0.1%; in the experiment with 1F7-RAb [1], under 0.1%; in [2], under 0.1%; in the experiment on 5C3-RAb [3], under 0.1%; in experiment [4], under 0.03%; with 5C3-McAb, under 0.1%. Further, in experiment [5], the cross-reactivity rate is listed as under 0.05%.
On to `CN1COCN(Cc2cnc(Cl)s2)/C1=N/[N+](=O)[O-]` [C00006], for which the cross-reactivity rate is under 0.1% with 1F7-McAb; under 0.1% in the experiment on 1F7-RAb [1]; under 0.1% in experiment [2]; under 0.1% with 5C3-RAb [3]; under 0.03% in experiment [4]; under 0.1% in the experiment with 5C3-McAb. Further, the cross-reactivity rate in experiment [5] is reported as under 0.05%.
As for `C/C(=N\C#N)N(C)Cc1ccc(Cl)nc1` [C00004], the cross-reactivity rate in the experiment with 1F7-McAb is given as under 0.1%; in the experiment on 1F7-RAb [1] it was under 0.1%; in [2], under 0.1%; in the experiment on 5C3-RAb [3] it was under 0.1%; in experiment [4], under 0.03%; in the experiment with 5C3-McAb, under 0.1%. The cross-reactivity rate in experiment [5] is under 0.05%.
Turning to `CN/C(=N/CC1CCOC1)N[N+](=O)[O-]` (stereo not shown) [dinotefuran], the cross-reactivity rate in the experiment on 1F7-McAb is listed as under 0.1%; in the experiment on 1F7-RAb [1], “no obvious cross-reaction”; with 1F7-RAb [1] (listed as C00002), under 0.1%; in experiment [2], 64%; with 5C3-RAb [3], 56%; in experiment [4], 47.8%. The cross-reactivity rate was 42.4% with 5C3-McAb and 11.8 ^c % in experiment [5].
On to `O=[N+]([O-])/N=C1\NCCN1Cc1ccc(Cl)nc1` [C00003], for which the cross-reactivity rate in the experiment with 1F7-McAb is recorded as under 0.1%; in the experiment on 1F7-RAb [1] it was under 0.1%; in experiment [2], under 0.1%; in the experiment on 5C3-RAb [3], under 0.1%; in [4] it was under 0.03%; in the experiment with 5C3-McAb, under 0.1%. In addition, the cross-reactivity rate in [5] is reported as 0.8%.

Usually Kd stands for the concentration at which binding is half-saturated.
